Where no end group is shown, it is not given here.

The source of these data is PMC9112550, “Optimization of the antimicrobial peptide Bac7 by deep mutational scanning” (BMC Biology, 2022).

In one assay the test system is HEK 293 cells. Type of assay: cell-based, human. Conditions: MTT, 24 h, 37°C, triplicates, read-out: Toxicity IC50. The method, then:
HeLa epithelioid cervix carcinoma cells (originally purchased: 93021013, Sigma Aldrich) and HEK 293 human embryonic kidney (originally purchased: 85120602, Sigma Aldrich) were routinely cultivated in Dulbecco’s MEM high glucose (DMEM, with L-glutamine, without phenol red, 1-26P32, Bioconcept, Allschwil, CH), supplemented with 10% fetal bovine serum (heat inactivated, sterile filtered, F9665, Sigma Aldrich) and 100 IU ml^−1/100 μg ml^−1 Penicillin/streptomycin (4-01F00, Bioconcept) at 37°C with 5% CO2. Cells were split at a confluency of ≤ 90% (every 3 to 4 days) and maintained for max. 10 passages before a fresh aliquot of cells were seeded. […] The cell concentration was determined using a Countess 2 device (Thermo Fisher Scientific) and approx. 5000 (HeLa) or 25,000 (HEK 293) cells were seeded into wells of a 96-well plate (F-bottom, PS, 655180, Greiner) together with 100 μl DMEM. […] For each dilution series, the IC50 value was determined by computing a weighted n-parameters logistic regression using the “nplr” package in R (https://CRAN.R-project.org/package=nplr). […]

A further assay concerns E. coli TOP10. Description: Membrane damage assay in MHB I (GFP loss, PI uptake). Type of assay: cell-based. The conditions noted are these: not cation-adjusted, n = 3. The method, then:
For membrane damage assays, the bacterial strain […] [pSEVA271-sfGFP] and the peptide dilutions were prepared as described for the MIC measurements but by scaling all volumes 5-fold and using 96-well plates (polypropylene, U-bottom, 650201, Greiner, Kremsmünster, AT) with a final assay volume of 200 μl. The bacterial strain suspension was furthermore supplemented with a final concentration of 1 μg ml^−1 propidium iodide (PI, from a 1 mg ml^−1 stock in water) just before pipetting the assay. After 1 h incubation at room temperature, the cell membrane integrity was assessed by flow cytometry using a Fortessa Analyzer (BD Biosciences) and appropriate filters for GFP and PI (488-nm laser with 530/30-nm bandpass filter and 579-nm laser with 610/20-nm bandpass filter). […]
Fig. S8 | Membrane damage assay. Membrane damage assays measuring PI uptake of the cells (% cells are given that gained PI fluorescence) and GFP loss (% of the cells are given that lost sfGFP fluorescence) when incubating E. coli TOP10 cells with various peptide concentrations in MHB I (n=3; error bars = 1SD).Fig. S7 | Interactions observed per amino acid residue. For each amino acid residue, the occurrences of interactions at all positions were counted. No antagonistic effect was detected for glutamate and valine residues. No interaction was detected for serine. […]

In assay [1] the test system is HEK 293 cells transfected with a luciferase construct. The assay is described as follows: Whole cell translation inhibition assay. Type of assay: cell-based, human. The conditions noted are these: HEK 293 whole-cell assay; 24 h incubation; luminescence; n = 1. The method, then:
HEK293 cells were cultivated in DMEM medium supplemented with 10% fetal bovine serum and transfected with vector pRM-hFluc carrying a Fluc gene under constitutive CMV promotor control using Xfect™ Transfection Reagent (Takara, Japan) according to the manufacturer’s protocol. Transfected cells were seeded into a 24-well plate 6 h post-transfection and pre-incubated overnight prior to addition of peptides in the next morning. Following 24 h of incubation in the presence of the peptides, cells were lysed using Lysis Buffer (Promega) and the luminescence was measured in a white microtiter plate using the FLx800 luminometer (Bio-Tek Instruments, USA).

By IC50 is commonly meant the point on the concentration scale where inhibition reaches its midpoint. Take RRIRIRPPRLPRPRPRPYFMPRP [Bac7PS]: the IC50 in the assay on HEK 293 cells turned out to be 755 µM. For the same sequence, the “membrane damage, compared with MHB II” value in the assay on E. coli TOP10 is “more pronounced”. Also, the “concentration above which increased translational inhibition relative to Bac7_1-23 appeared” value in assay [1] is listed as “above 200 μM”.
